Reference: patent publication US20220378923A1, “BET DEGRADER” (KYOWA KIRIN CO., LTD., priority 2019, published 2022)

test system: SU-DHL-4 cells; experiment: Inhibitory effect on cell viability in SU-DHL-4 cell line (Test Example 1); assay type: cell-based, human; conditions: Homo sapiens; SU-DHL-4 cells, 72 hours, Cell Counting Kit-8; concentration showing 90% inhibition of cell viability; read-out: SU-DHL-4 Cell Viability Inhibition Rate IC90
Protocol: SU-DHL-4 cells (Code No. ACC 495, Deutsche Sammlung von Mikroorganismen and Zellkulturen GmbH; DSMZ) were cultured at 37° C. using a carbon dioxide incubator (95% air, 5% CO2) in RPMI1640 medium (Code No. 11875-093, Thermo Fisher Scientific) in which inactivated fetal bovine serum (FBS: Code No. 10099-148, Thermo Fisher Scientific) in an amount to give a final concentration of 10 vol % and penicillin/streptomycin solution (PS: […] The cells were passaged twice a week at a volume of 20-40 mL so as to maintain a cell concentration of 1×10^6 cells/mL or less. […] After seeding, the cells were precultured at 37° C. in a carbon dioxide gas incubator for 18 to 25 hours. […] At this time, the final concentration of DMSO was adjusted to be 0.1 vol %. After adding the test compound, the cells were cultured at 37° C. in a carbon dioxide gas incubator for 72 hours. Next, 0.020 mL of Cell Counting Kit-8 (Code No. CK04, DOJINDO) solution diluted 2-fold or 4-fold with phosphate buffered saline (PBS) was added to each well. Color reaction was carried out in a carbon dioxide gas incubator at 37° C. for 2 to 3 hours, and the absorbance at a wavelength of 450 nm was measured using SpectraMax 340PC (Molecular Devices). […] Absorbance of a well containing test compound • B: Absorbance of a well without addition of cells • C: Absorbance of a well without addition of test compound

Compound | IC90
CCC(=O)N1c2ccccc2[C@H](Nc2ccc(NC(=O)CNCC(=O)Nc3ccc(N[C@@H]4C[C@H](C)N(C(=O)CC)c5ccccc54)nc3)cc2)C[C@@H]1C (relative stereo) [Compound 17g, N-(4-(((2S,4R)-2-Methyl-1-propionyl-1,2,3,4-tetrahydroquinolin-4-yl)amino)phenyl)-2-((2-((6-(((2S*,4R*)-2-methyl-1-propionyl-1,2,3,4-tetrahydroquinolin-4-yl)amino)pyridin-3-yl)amino)-2-oxoethyl)amino)acetamide] | 32.7 nM

same assay, conditions: SU-DHL-4 cells, 72 hours, Cell Counting Kit-8; concentration showing 90% inhibition of cell viability; read-out: SU-DHL-4 Cell Viability Inhibition Rate IC90

Compound | IC90
CCC(=O)N1c2ccccc2[C@H](Nc2ccc(-c3cnc4n3CCN(C(=O)C3CCC(N[C@@H]5C[C@H](C)N(C(=O)CC)c6ccccc65)CC3)C4)cc2)C[C@@H]1C (relative stereo) [Compound 8h, 1-((2S*,4R*)-2-methyl-4-(((1R,4R)-4-(3-(4-(((2S,4R)-2-methyl-1-propionyl-1,2,3,4-tetrahydroquinolin-4-yl)amino)phenyl)-5,6,7,8-tetrahydroimidazo[1,2-a]pyrazine-7-carbonyl)cyclohexyl)amino)-3,4-dihydroquinolin-1(2H)-yl)propan-1-one] | 1.14 nM
CCC(=O)N1c2ccccc2[C@H](Nc2ccc(SCCNC(=O)C3CCC(N[C@@H]4C[C@H](C)N(C(=O)CC)c5ccccc54)CC3)cc2)C[C@@H]1C (relative stereo) [Compound 8i, (1R,4R)-4-(((2S*,4R*)-2-Methyl-1-propionyl-1,2,3,4-tetrahydroquinolin-4-yl)amino)-N-(2-((4-(((2S,4R)-2-methyl-1-propionyl-1,2,3,4-tetrahydroquinolin-4-yl)amino)phenyl)thio)ethyl)cyclohexane-1-carboxamide] | 2.69 nM
CCC(=O)N1c2ccccc2[C@H](Nc2ccc(-c3nc(CNC(=O)C4CCC(N[C@@H]5C[C@H](C)N(C(=O)CC)c6ccccc65)CC4)no3)cc2)C[C@@H]1C (relative stereo) [Compound 8k, (1R,4R)-4-(((2S*,4R*)-2-Methyl-1-propionyl-1,2,3,4-tetrahydroquinolin-4-yl)amino)-N-((5-(4-(((2S,4R)-2-methyl-1-propionyl-1,2,3,4-tetrahydroquinolin-4-yl)amino)phenyl)-1,2,4-oxadiazol-3-yl)methyl)cyclohexane-1-carboxamide] | 0.26 nM
CCC(=O)N1c2ccccc2[C@H](Nc2ccc(-n3cc(CNC(=O)C4CCC(N[C@@H]5C[C@H](C)N(C(=O)CC)c6ccccc65)CC4)nn3)cc2)C[C@@H]1C (relative stereo) [Compound 8l, (1R,4R)-4-(((2S*,4R*)-2-Methyl-1-propionyl-1,2,3,4-tetrahydroquinolin-4-yl)amino)-N-((1-(4-(((2S,4R)-2-methyl-1-propionyl-1,2,3,4-tetrahydroquinolin-4-yl)amino)phenyl)-1H-1,2,3-triazol-4-yl)methyl)cyclohexane-1-carboxamide] | 0.04 nM
CCC(=O)N1c2ccccc2[C@H](Nc2ccc(NC(=O)NCCNC(=O)C3CCC(N[C@@H]4C[C@H](C)N(C(=O)CC)c5ccccc54)CC3)cc2)C[C@@H]1C (relative stereo) [Compound 8n, (1R,4r)-4-(((2S*,4R*)-2-Methyl-1-propionyl-1,2,3,4-tetrahydroquinolin-4-yl)amino)-N-(2-(3-(4-(((2S,4R)-2-methyl-1-propionyl-1,2,3,4-tetrahydroquinolin-4-yl)amino)phenyl)ureido)ethyl)cyclohexane-1-carboxamide] | 1.17 nM
CCC(=O)N1c2ccccc2[C@H](Nc2ccc(-c3cnn(CCNC(=O)C4CCC(N[C@@H]5C[C@H](C)N(C(=O)CC)c6ccccc65)CC4)c3)cc2)C[C@@H]1C (relative stereo) [Compound 8o, (1R,4r)-4-(((2S*,4R*)-2-Methyl-1-propionyl-1,2,3,4-tetrahydroquinolin-4-yl)amino)-N-(2-(4-(4-(((2S,4R)-2-methyl-1-propionyl-1,2,3,4-tetrahydroquinolin-4-yl)amino)phenyl)-1H-pyrazol-1-yl)ethyl)cyclohexane-1-carboxamide] | 0.49 nM
CCC(=O)N1c2ccccc2[C@H](Nc2ccc(NC(=O)C3CCN(C(=O)C4CCC(N[C@@H]5C[C@H](C)N(C(=O)CC)c6ccccc65)CC4)CC3)cc2)C[C@@H]1C (relative stereo) [Compound 8q, 1-((1R,4r)-4-(((2S*,4R*)-2-Methyl-1-propionyl-1,2,3,4-tetrahydroquinolin-4-yl)amino)cyclohexane-1-carbonyl)-N-(4-(((2S,4R)-2-methyl-1-propionyl-1,2,3,4-tetrahydroquinolin-4-yl)amino)phenyl)piperidine-4-carboxamide] | 19 nM
CCC(=O)N1c2ccccc2[C@H](Nc2ccc(C(=O)NCCS(=O)(=O)NC3CCC(N[C@@H]4C[C@H](C)N(C(=O)CC)c5ccccc54)CC3)cc2)C[C@@H]1C (relative stereo) [Compound 9a, 4-(((2S,4R)-2-Methyl-1-propionyl-1,2,3,4-tetrahydroquinolin-4-yl)amino)-N-(2-(N-((1R,4R)-4-(((2S*,4R*)-2-methyl-1-propionyl-1,2,3,4-tetrahydroquinolin-4-yl)amino)cyclohexyl)sulfamoyl)ethyl)benzamide] | 1.68 nM
CCC(=O)N1c2ccccc2[C@H](Nc2ccc(-c3cnn(CC(=O)NC4CCC(N[C@@H]5C[C@H](C)N(C(=O)CC)c6ccccc65)CC4)c3)cc2)C[C@@H]1C (relative stereo) [Compound 9b, N-((1R,4R)-4-(((2S*,4R*)-2-Methyl-1-propionyl-1,2,3,4-tetrahydroquinolin-4-yl)amino)cyclohexyl)-2-(4-(4-(((2S,4R)-2-methyl-1-propionyl-1,2,3,4-tetrahydroquinolin-4-yl)amino)phenyl)-1H-pyrazol-1-yl)acetamide] | 3.18 nM
CCC(=O)N1c2ccccc2[C@H](Nc2ccc(NC(=O)NCC(=O)NC3CCC(N[C@@H]4C[C@H](C)N(C(=O)CC)c5ccccc54)CC3)cc2)C[C@@H]1C (relative stereo) [Compound 9c, N-((1R,4R)-4-(((2S*,4R*)-2-Methyl-1-propionyl-1,2,3,4-tetrahydroquinolin-4-yl)amino)cyclohexyl)-2-(3-(4-(((2S,4R)-2-methyl-1-propionyl-1,2,3,4-tetrahydroquinolin-4-yl)amino)phenyl)ureido)acetamide] | 12.4 nM
CCC(=O)N1c2ccccc2[C@H](Nc2ccc(C(=O)NCC#CC(=O)NC3CC(N[C@@H]4C[C@H](C)N(C(=O)CC)c5ccccc54)C3)cc2)C[C@@H]1C (relative stereo) [Compound 10f, 4-(((2S,4R)-2-Methyl-1-propionyl-1,2,3,4-tetrahydroquinolin-4-yl)amino)-N-(4-(((1R,3R)-3-(((2S*,4R*)-2-methyl-1-propionyl-1,2,3,4-tetrahydroquinolin-4-yl)amino)cyclobutyl)amino)-4-oxobut-2-yn-1-yl)benzamide] | 0.92 nM
CCC(=O)N1c2ccccc2[C@H](NCc2ccc(C(=O)NCc3cn(-c4ccc(N[C@@H]5C[C@H](C)N(C(=O)CC)c6ccccc65)cc4)nn3)cc2)C[C@@H]1C (relative stereo) [Compound 10h, 4-((a2S*,4R*)-2-Methyl-1-propionyl-1,2,3,4-tetrahydroquinolin-4-yl)amino)methyl)-N-((1-(4-(((2S,4R)-2-methyl-1-propionyl-1,2,3,4-tetrahydroquinolin-4-yl)amino)phenyl)-1H-1,2,3-triazol-4-yl)methyl)benzamide] | 0.35 nM
CCC(=O)N1c2ccccc2[C@H](NCCCCC(=O)NCc2nnc(-c3ccc(N[C@@H]4C[C@H](C)N(C(=O)CC)c5ccccc54)cc3)o2)C[C@@H]1C (relative stereo) [Compound 12j, 5-(((2S*,4R*)-2-Methyl-1-propionyl-1,2,3,4-tetrahydroquinolin-4-yl)amino)-N-((5-(4-(((2S,4R)-2-methyl-1-propionyl-1,2,3,4-tetrahydroquinolin-4-yl)amino)phenyl)-1,3,4-oxadiazol-2-yl)methyl)pentane amide] | 17.4 nM
CCC(=O)N1c2ccccc2[C@H](NC2CCC(NC(=O)C#CCNC(=O)c3ccc(C4=NCc5nnc(C)n5-c5sc(C)c(C)c54)cc3)CC2)C[C@@H]1C (relative stereo) [Compound 14c, N-(4-(((1R,4r)-4-(((2S*,4R*)-2-Methyl-1-propionyl-1,2,3,4-tetrahydroquinolin-4-yl)amino)cyclohexyl)amino)-4-oxobut-2-yn-1-yl)-4-(2,3,9-trimethyl-6H-thieno[3,2-f][1,2,4]triazolo[4,3-a][1,4]diazepin-4-yl)benzamide] | 0.34 nM
CCC(=O)N1c2ccccc2[C@@H](Nc2ccc(-n3cc(CNC(=O)C4CCC(N[C@@H]5C[C@H](C)N(C(=O)CC)c6ccccc65)CC4)nn3)cn2)C[C@H]1C (relative stereo) [Compound 17h, (1R,4S)-4-(((2S,4R)-2-Methyl-1-propionyl-1,2,3,4-tetrahydroquinolin-4-yl)amino)-N-((1-(6-(((2R*,4S*)-2-methyl-1-propionyl-1,2,3,4-tetrahydroquinolin-4-yl)amino)pyridin-3-yl)-1H-1,2,3-triazol-4-yl)methyl)cyclohexane-1-carboxamide] | 0.2 nM
